Active and inactive are the calls of the source. No cut-off for these calls is given here.
Columns and labels:
[1] = target: Xanthine dehydrogenase/oxidase (Bos taurus, UniProt P80457); test: Inhibition of bovine milk xanthine oxidase
[2] = system: NCI-H1975; format: functional, cell-based; conditions: Homo sapiens, NCI-H1975, 48 h
[3] = system: HL-60; format: functional, cell-based; conditions: Homo sapiens, HL-60, 48 h
[4] = system: HL-60; test: Downregulation of HDAC1 expression level in human HL-60 cells at 0.5 to 2 uM by Western blotting analysis; format: functional, cell-based; conditions: dose 0.5-2 µM
[5] = system: HL-60; test: Downregulation of HDAC2 expression level in human HL-60 cells at 0.5 to 2 uM by Western blotting analysis; format: functional, cell-based; conditions: dose 0.5-2 µM
[6] = system: HL-60; test: Downregulation of HDAC3 expression level in human HL-60 cells at 0.5 to 2 uM by Western blotting analysis; format: functional, cell-based; conditions: dose 0.5-2 µM
[7] = system: MDA-MB-231; test: Downregulation of HDAC1 expression level in human MDA-MB-231 cells at 0.5 to 2 uM by Western blotting analysis; format: functional, cell-based; conditions: dose 0.5-2 µM
[8] = system: MDA-MB-231; test: Downregulation of HDAC2 expression level in human MDA-MB-231 cells at 0.5 to 2 uM by Western blotting analysis; format: functional, cell-based; conditions: dose 0.5-2 µM
[9] = system: MDA-MB-231; test: Downregulation of HDAC6 expression level in human MDA-MB-231 cells at 0.5 to 2 uM by Western blotting analysis; format: functional, cell-based; conditions: dose 0.5-2 µM
[10] = system: HL-60; test: Upregulation of acetylated histone H3 level in human HL-60 cells by Western blotting analysis; format: functional, cell-based; conditions: dose 0.5-2 µM
[11] = system: HL-60; test: Upregulation of acetylated alpha tubulin level in human HL-60 cells by Western blotting analysis; format: functional, cell-based; conditions: dose 0.5-2 µM
[12] = system: MDA-MB-231; test: Upregulation of acetylated histone H3 level in human MDA-MB-231 cells by Western blotting analysis; format: functional, cell-based; conditions: dose 0.5-2 µM
[13] = system: MDA-MB-231; test: Upregulation of acetylated tubulin level in human MDA-MB-231 cells by Western blotting analysis; format: functional, cell-based; conditions: dose 0.5-2 µM
[14] = system: HL-60; test: Induction of apoptosis in human HL-60 cells at 0.5 to 2 uM incubated for 48 hrs by propidium iodide staining based flow cytometry analysis; format: functional, cell-based; conditions: dose 0.5-2 µM
[15] = system: HL-60; test: Downregulation of mTOR expression level in human HL-60 cells at 0.5 to 2 uM by Western blotting analysis; format: functional, cell-based; conditions: dose 0.5-2 µM
[16] = system: HL-60; test: Upregulation of cleaved caspase-3 expression level in human HL-60 cells at 0.5 to 2 uM by Western blotting analysis; format: functional, cell-based; conditions: dose 0.5-2 µM
[17] = system: HL-60; test: Induction of apoptosis in human HL-60 cells assessed as morphological changes at 0.5 to 2 uM by DAPI staining based microscopic analysis; format: functional, cell-based; conditions: dose 0.5-2 µM
[18] = system: MDA-MB-231; test: Induction of apoptosis in human MDA-MB-231 cells assessed as G2/M phase arrest at 0.5 to 1 uM incubated for 48 hrs; format: functional, cell-based; conditions: dose 0.5-1 µM
[19] = system: MDA-MB-231; test: Induction of apoptosis in human MDA-MB-231 cells assessed as cell death at sub-G1 phase at 0.5 to 1 uM incubated for 48 hrs; format: functional, cell-based; conditions: dose 0.5-1 µM
[20] = system: MDA-MB-231; test: Induction of autophagy in human MDA-MB-231 cells assessed as upregulation of LC3-II expression level at 1 to 4 uM by Western blotting assay; format: functional, cell-based; conditions: dose 1-4 µM
[21] = system: HL-60; test: Antitumor activity against human HL-60 cells xenografted in ip dosed BALB/c nude mouse model assessed as reduction in tumor volume and measured twice a week for 22 days; format: functional, organism-based; conditions: dose 50-100 mg/kg, time 22.0 day
[22] = system: HL-60; test: Antitumor activity against human HL-60 cells xenografted in BALB/c nude mouse model assessed as reduction in tumor volume at 50 to 100 mg/kg, ip measured twice a week for 22 days; format: functional, organism-based; conditions: dose 50-100 mg/kg, time 22.0 day
[23] = system: Rattus norvegicus; test: Anti-hyperuricemic activity against potassium oxonate-induced hyperuricemia Wistar rat model assessed as decrease in serum uric acid level at 2.5 mg/kg measured after 14 days; format: functional, organism-based; conditions: time 14.0 day
[24] = system: Rattus norvegicus; test: Anti-hyperuricemic activity against potassium oxonate-induced hyperuricemia Wistar rat model assessed as decrease in serum uric acid level at 10 mg/kg measured after 14 days; format: functional, organism-based; conditions: time 14.0 day
[25] = system: Rattus norvegicus; test: Anti-hyperuricemic activity against potassium oxonate-induced hyperuricemia Wistar rat model assessed as decrease in serum creatinine level at 5 to 10 mg/kg measured after 14 days; format: functional, organism-based; conditions: dose 5-10 mg/kg, time 14.0 day
[26] = system: Rattus norvegicus; test: Anti-hyperuricemic activity against potassium oxonate-induced hyperuricemia Wistar rat model assessed as decrease in blood urea level at 5 to 10 mg/kg measured after 14 days; format: functional, organism-based; conditions: dose 5-10 mg/kg, time 14.0 day
[27] = system: Rattus norvegicus; test: Anti-hyperuricemic activity against potassium oxonate-induced hyperuricemia Wistar rat model assessed as increase in neutrophils at 5 mg/kg measured after 14 days; format: functional, organism-based; conditions: time 14.0 day
[28] = system: Rattus norvegicus; test: Anti-hyperuricemic activity against potassium oxonate-induced hyperuricemia Wistar rat model assessed as increase in lymphocytes at 5 mg/kg measured after 14 days; format: functional, organism-based; conditions: time 14.0 day
[29] = system: Rattus norvegicus; test: Anti-hyperuricemic activity against potassium oxonate-induced hyperuricemia Wistar rat model assessed as increase in monocytes at 5 mg/kg measured after 14 days; format: functional, organism-based; conditions: time 14.0 day
[30] = system: Rattus norvegicus; test: Anti-hyperuricemic activity against potassium oxonate-induced hyperuricemia Wistar rat model assessed as increase in RBC at 5 mg/kg measured after 14 days; format: functional, organism-based; conditions: time 14.0 day
[31] = system: Rattus norvegicus; test: Anti-hyperuricemic activity against potassium oxonate-induced hyperuricemia Wistar rat model assessed as increase in platelet counts at 5 mg/kg measured after 14 days; format: functional, organism-based; conditions: time 14.0 day
[32] = system: Rattus norvegicus; test: Anti-hyperuricemic activity against potassium oxonate-induced hyperuricemia Wistar rat model assessed as enhancement in complete blood count at 10 mg/kg measured after 14 days; format: functional, organism-based; conditions: time 14.0 day
[33] = system: Rattus norvegicus; test: Anti-hyperuricemic activity against potassium oxonate-induced hyperuricemia Wistar rat model assessed as improvement in renal condition at 5 mg/kg by measuring decrease in degeneration of tubular cells measured after 14 days by H and E staining based assay; format: functional, organism-based; conditions: time 14.0 day
[34] = system: Rattus norvegicus; test: Anti-hyperuricemic activity against potassium oxonate-induced hyperuricemia Wistar rat model assessed as improvement in renal condition at 5 mg/kg by measuring decrease in enlargement of tubular cells measured after 14 days by H and E staining based assay; format: functional, organism-based; conditions: time 14.0 day
[35] = system: Rattus norvegicus; test: Anti-hyperuricemic activity against potassium oxonate-induced hyperuricemia Wistar rat model assessed as improvement in renal condition at 5 mg/kg by measuring decrease in enlargement of glomeruli measured after 14 days by H and E staining based assay; format: functional, organism-based; conditions: time 14.0 day
[36] = system: Rattus norvegicus; test: Anti-hyperuricemic activity against potassium oxonate-induced hyperuricemia Wistar rat model assessed as improvement in renal condition by measuring decrease in tubular cell necrosis at 10 mg/kg measured after 14 days by H and E staining based assay; format: functional, organism-based; conditions: time 14.0 day
[37] = system: Rattus norvegicus; test: Anti-hyperuricemic activity against potassium oxonate-induced hyperuricemia Wistar rat model assessed as improvement in renal condition by measuring normal glomeruli appearance at 10 mg/kg measured after 14 days by H and E staining based assay; format: functional, organism-based; conditions: time 14.0 day
[38] = system: Rattus norvegicus; test: Anti-hyperuricemic activity against potassium oxonate-induced hyperuricemia Wistar rat model assessed as reduction in DCT expansion at 10 mg/kg measured after 14 days by H and E staining based assay; format: functional, organism-based; conditions: time 14.0 day
[39] = system: Rattus norvegicus; test: Anti-hyperuricemic activity against potassium oxonate-induced hyperuricemia Wistar rat model assessed as increase in number of cuboidal cells at 10 mg/kg measured after 14 days by H and E staining based assay; format: functional, organism-based; conditions: time 14.0 day
[40] = system: HL-60; test: Cytotoxicity against human HL-60 cells incubated for 1 day by MTT assay; format: functional, cell-based; conditions: HL-60, 24 h
[41] = system: HH; test: Cytotoxicity against human HH cells incubated for 1 day by MTT assay; format: functional, cell-based; conditions: 24 h
[42] = system: K562; test: Cytotoxicity against human K562 cells incubated for 1 day by MTT assay; format: functional, cell-based; conditions: K562, 24 h
[43] = Cytotoxicity against mouse L929 cells incubated for 1 day by MTT assay; format: toxicity, cell-based

Chain of Xanthine dehydrogenase/oxidase (P80457 whole entry): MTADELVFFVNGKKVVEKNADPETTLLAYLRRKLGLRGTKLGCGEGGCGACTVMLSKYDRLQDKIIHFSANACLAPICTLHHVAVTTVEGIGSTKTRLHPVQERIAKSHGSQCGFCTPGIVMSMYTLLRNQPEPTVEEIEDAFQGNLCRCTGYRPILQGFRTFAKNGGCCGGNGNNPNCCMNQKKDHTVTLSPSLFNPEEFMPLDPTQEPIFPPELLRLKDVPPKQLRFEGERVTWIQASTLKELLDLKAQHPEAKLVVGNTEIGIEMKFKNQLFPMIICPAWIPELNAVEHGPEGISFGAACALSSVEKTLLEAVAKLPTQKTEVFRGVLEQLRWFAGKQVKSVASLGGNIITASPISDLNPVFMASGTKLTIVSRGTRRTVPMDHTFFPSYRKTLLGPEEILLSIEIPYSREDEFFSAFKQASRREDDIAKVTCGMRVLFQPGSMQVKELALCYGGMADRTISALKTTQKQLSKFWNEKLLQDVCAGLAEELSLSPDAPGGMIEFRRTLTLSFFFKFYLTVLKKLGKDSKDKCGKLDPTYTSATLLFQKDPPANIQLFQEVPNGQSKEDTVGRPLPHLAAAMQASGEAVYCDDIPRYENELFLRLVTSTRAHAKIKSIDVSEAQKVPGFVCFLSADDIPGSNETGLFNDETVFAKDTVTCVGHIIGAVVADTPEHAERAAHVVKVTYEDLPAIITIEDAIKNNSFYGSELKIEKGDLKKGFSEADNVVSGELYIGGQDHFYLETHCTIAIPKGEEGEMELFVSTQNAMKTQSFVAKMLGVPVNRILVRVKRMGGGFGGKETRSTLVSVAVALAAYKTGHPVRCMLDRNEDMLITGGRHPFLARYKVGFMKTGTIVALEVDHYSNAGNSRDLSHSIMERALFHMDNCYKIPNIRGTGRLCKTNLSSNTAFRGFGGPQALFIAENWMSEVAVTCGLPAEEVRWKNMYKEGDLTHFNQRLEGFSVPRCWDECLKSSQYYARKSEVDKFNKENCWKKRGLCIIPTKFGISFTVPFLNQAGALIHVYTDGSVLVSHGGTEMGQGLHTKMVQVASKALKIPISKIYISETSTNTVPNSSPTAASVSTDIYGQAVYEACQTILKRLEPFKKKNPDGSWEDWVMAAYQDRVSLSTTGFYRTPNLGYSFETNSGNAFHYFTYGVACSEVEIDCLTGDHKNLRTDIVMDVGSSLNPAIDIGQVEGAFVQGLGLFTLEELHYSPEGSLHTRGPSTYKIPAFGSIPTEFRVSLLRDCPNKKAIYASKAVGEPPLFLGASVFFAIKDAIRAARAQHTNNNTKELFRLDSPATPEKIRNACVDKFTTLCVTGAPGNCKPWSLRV

IC50 [1]: 0.0066 µM
IC50 [2]: 5.45 µM
IC50 [3]: 0.706 µM
Structure (SMILES): Cc1nc(-c2ccc(OCC(C)C)c(C#N)c2)sc1C(=O)NCCCCCCC(=O)NO
Activity [4]: Active; Activity More Potent Than Saha
Activity [5]: Active; Activity More Potent Than Saha
Activity [6]: Active; Activity More Potent Than Saha
Activity [7]: Active
Activity [8]: Active
Activity [9]: Active
Activity [10]: Dose-dependent-effect
Activity [11]: Dose-dependent-effect
Activity [12]: Dose-dependent-effect
Activity [13]: Dose-dependent-effect
Activity [14]: Active; Activity Similar To Saha
Activity [15]: Active
Activity [16]: Active
Activity [17]: Active
Activity [18]: Active
Activity [19]: Active
Activity [20]: Active
Activity [21]: Dose-dependent-effect
Activity [22]: Active; Activity More Potent Than Saha
Activity [23]: inactive
Activity [24]: Active
Activity [25]: Active
Activity [26]: Active
Activity [27]: Active
Activity [28]: Active
Activity [29]: Active
Activity [30]: Active
Activity [31]: Active
Activity [32]: Active
Activity [33]: Active
Activity [34]: Active
Activity [35]: Active
Activity [36]: Active
Activity [37]: Active
Activity [38]: Active
Activity [39]: Active
IC50 [40]: 0.706 µM
IC50 [41]: 1.09 µM
IC50 [42]: 1.21 µM
IC50 at 1 day [43]: 2.23 µM

From ChEMBL document CHEMBL6083219, “Rationally designed febuxostat-based hydroxamic acid and its pH-Responsive nanoformulation elicits anti-tumor activity” (Eur J Med Chem, 2024)
